{"source": "patent US10517869B2", "about": "(SENTISS PHARMA PRIVATE LIMITED, priority 2013, dated 2019)", "key": {"[1]": {"conditions": "at a pH of 6.4"}, "[2]": {"assay": "Compatibility of quaternary ammonium preservative with brimonidine (precipitation)", "type": "physicochemical", "conditions": "pH of around 6.0", "from_the_text": "Benzododecinium bromide forms an ion pair with brimonidine, thereby neutralizing the charge of brimonidine.\nBenzododecinium halide (e.g., bromide) forms an ion pair with brimonidine, thereby neutralizing the charge of brimonidine. […] Thus it was surprising to find that benzododecinium halide is compatible with brimonidine."}, "[3]": {"conditions": "cited from earlier work"}}, "note": "Where two headings read alike, the source gives them in different places."}
{"compound": "Brc1c(NC2=NCCN2)ccc2nccnc12", "note": "[Brimonidine]", "values": [{"measurement": "ionized", "setting": "[1]", "result": "about 90%"}]}
{"compound": "CCCCCCCCCCCC[N+](C)(C)Cc1ccccc1.[Br-]", "note": "[benzododecinium bromide]", "values": [{"measurement": "precipitation with brimonidine", "setting": "[2]", "result": "does not form a precipitation with brimonidine"}]}
{"compound": "benzalkonium chloride", "values": [{"measurement": "precipitation with brimonidine", "setting": "[2]", "result": "forms a hazy solution"}]}
{"compound": "brimonidine tartrate", "values": [{"measurement": "Solubility", "setting": "[3]; Study 1, pH 5.55", "result": "≥164.4"}, {"measurement": "Solubility", "setting": "[3]; Study 1, pH 5.92", "result": 132.6}, {"measurement": "Solubility", "setting": "[3]; Study 1, pH 6.14", "result": 30.4}, {"measurement": "Solubility", "setting": "[3]; Study 1, pH 6.57", "result": 7.55}, {"measurement": "Solubility", "setting": "[3]; Study 1, pH 7", "result": 2.69}, {"measurement": "Solubility", "setting": "[3]; Study 1, pH 7.45", "result": 1.17}, {"measurement": "Solubility", "setting": "[3]; Study 1, pH 7.83", "result": 0.62}, {"measurement": "Solubility", "setting": "[3]; Study 2, pH 5.5", "result": "≥200.6"}, {"measurement": "Solubility", "setting": "[3]; Study 2, pH 5.92", "result": 160.8}, {"measurement": "Solubility", "setting": "[3]; Study 2, pH 6.06", "result": 50.1}, {"measurement": "Solubility", "setting": "[3]; Study 2, pH 6.9", "result": 3.19}, {"measurement": "Solubility", "setting": "[3]; Study 2, pH 7.4", "result": 1.19}, {"measurement": "Solubility", "setting": "[3]; Study 2, pH 7.77", "result": 0.63}, {"measurement": "Solubility", "setting": "[3]; Study 2, pH 7.86", "result": 0.58}, {"measurement": "Solubility", "setting": "[3]; Study 2, pH 7.88", "result": 0.54}]}
